Source: ChEMBL document CHEMBL3616405 (J Med Chem, 2015)

What was measured:
[1] = target: T1, Glucagon-like peptide 1 receptor (Homo sapiens, UniProt P43220); assay: Displacement of [125I]-GLP1 from human GLP1 receptor expressed in BHK cells after 2 hrs in absence of human serum albumin; assay type: cell-based
[2] = target: T1, Glucagon-like peptide 1 receptor; assay: Displacement of [125I]-GLP1 from human GLP1 receptor expressed in BHK cells after 2 hrs in presence of 2% human serum albumin; assay type: cell-based
[3] = target: T1, Glucagon-like peptide 1 receptor; assay: Agonist activity at human GLP1 receptor expressed in BHK cells after 3 hrs by CRE firefly luciferase reporter gene assay in absence of human serum albumin; assay type: functional, cell-based

T1 sequence (P43220 whole entry): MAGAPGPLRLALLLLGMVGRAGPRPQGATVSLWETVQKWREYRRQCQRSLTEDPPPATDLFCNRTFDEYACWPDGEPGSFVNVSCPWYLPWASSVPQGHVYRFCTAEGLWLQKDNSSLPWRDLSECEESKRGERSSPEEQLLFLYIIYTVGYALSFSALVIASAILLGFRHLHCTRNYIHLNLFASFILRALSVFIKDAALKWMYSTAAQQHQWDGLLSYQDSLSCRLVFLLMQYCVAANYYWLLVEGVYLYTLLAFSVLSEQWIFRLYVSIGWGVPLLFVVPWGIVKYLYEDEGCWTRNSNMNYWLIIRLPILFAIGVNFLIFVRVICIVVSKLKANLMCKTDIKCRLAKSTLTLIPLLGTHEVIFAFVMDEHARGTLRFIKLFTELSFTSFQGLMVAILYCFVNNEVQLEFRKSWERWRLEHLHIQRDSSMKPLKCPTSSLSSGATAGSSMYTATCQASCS

CC[C@H](C)[C@H](NC(=O)[C@H](Cc1ccccc1)NC(=O)[C@H](CCC(=O)O)NC(=O)[C@H](CCCCNC(=O)COCCOCCNC(=O)COCCOCCNC(=O)c1ccc(CN(CCC(=O)O)C(=O)CCCCCCCCCCCCCCCCC(=O)O)cc1)NC(=O)[C@H](C)NC(=O)[C@H](C)NC(=O)[C@H](CCC(N)=O)NC(=O)CNC(=O)[C@H](CCC(=O)O)NC(=O)[C@H](CC(C)C)NC(=O)[C@H](Cc1ccc(O)cc1)NC(=O)[C@H](CO)NC(=O)[C@H](CO)NC(=O)[C@@H](NC(=O)[C@H](CC(=O)O)NC(=O)[C@H](CO)NC(=O)[C@@H](NC(=O)[C@H](Cc1ccccc1)NC(=O)[C@@H](NC(=O)CNC(=O)[C@H](CCC(=O)O)NC(=O)C(C)(C)NC(=O)[C@@H](N)Cc1c[nH]cn1)[C@@H](C)O)[C@@H](C)O)C(C)C)C(=O)N[C@@H](C)C(=O)N[C@@H](Cc1c[nH]c2ccccc12)C(=O)N[C@@H](CC(C)C)C(=O)N[C@H](C(=O)N[C@@H](CCCNC(=N)N)C(=O)NCC(=O)N[C@@H](CCCNC(=N)N)C(=O)NCC(=O)O)C(C)C
IC50 [1]: 9.19 nM
IC50 [2]: 51.7 nM

CC[C@H](C)[C@H](NC(=O)[C@H](Cc1ccccc1)NC(=O)[C@H](CCC(=O)O)NC(=O)[C@H](CCCCNC(=O)CCCCCCCCCCCCCCCCC(=O)O)NC(=O)[C@H](C)NC(=O)[C@H](C)NC(=O)[C@H](CCC(N)=O)NC(=O)CNC(=O)[C@H](CCC(=O)O)NC(=O)[C@H](CC(C)C)NC(=O)[C@H](Cc1ccc(O)cc1)NC(=O)[C@H](CO)NC(=O)[C@H](CO)NC(=O)[C@@H](NC(=O)[C@H](CC(=O)O)NC(=O)[C@H](CO)NC(=O)[C@@H](NC(=O)[C@H](Cc1ccccc1)NC(=O)[C@@H](NC(=O)CNC(=O)[C@H](CCC(=O)O)NC(=O)C(C)(C)NC(=O)[C@@H](N)Cc1c[nH]cn1)[C@@H](C)O)[C@@H](C)O)C(C)C)C(=O)N[C@@H](C)C(=O)N[C@@H](Cc1c[nH]c2ccccc12)C(=O)N[C@@H](CC(C)C)C(=O)N[C@H](C(=O)N[C@@H](CCCNC(=N)N)C(=O)NCC(=O)N[C@@H](CCCNC(=N)N)C(=O)NCC(=O)O)C(C)C
IC50 [1]: 1.86 nM
EC50 [3]: 0.269 nM
IC50 [2]: 27 nM

CCCCCCCCCCCCCCCC(=O)N[C@@H](CCC(=O)NCCOCCOCC(=O)NCCOCCOCC(=O)NCCOCCOCC(=O)NCCCC[C@H](NC(=O)[C@H](C)NC(=O)[C@H](C)NC(=O)[C@H](CCC(N)=O)NC(=O)CNC(=O)[C@H](CCC(=O)O)NC(=O)[C@H](CC(C)C)NC(=O)[C@H](Cc1ccc(O)cc1)NC(=O)[C@H](CO)NC(=O)[C@H](CO)NC(=O)[C@@H](NC(=O)[C@H](CC(=O)O)NC(=O)[C@H](CO)NC(=O)[C@@H](NC(=O)[C@H](Cc1ccccc1)NC(=O)[C@@H](NC(=O)CNC(=O)[C@H](CCC(=O)O)NC(=O)C(C)(C)NC(=O)[C@@H](N)Cc1c[nH]cn1)[C@@H](C)O)[C@@H](C)O)C(C)C)C(=O)N[C@@H](CCC(=O)O)C(=O)N[C@@H](Cc1ccccc1)C(=O)N[C@H](C(=O)N[C@@H](C)C(=O)N[C@@H](Cc1c[nH]c2ccccc12)C(=O)N[C@@H](CC(C)C)C(=O)N[C@H](C(=O)N[C@@H](CCCNC(=N)N)C(=O)NCC(=O)N[C@@H](CCCNC(=N)N)C(=O)NCC(=O)O)C(C)C)[C@@H](C)CC)C(=O)O
IC50 ([1]; bhk): 0.03 nM
EC50 ([3]; bhk): 0.0043 nM
IC50 ([2]; bhk): 0.22 nM

CCCCCCCCCCCCCCCCCCCC(=O)N[C@@H](CCC(=O)NCCOCCOCC(=O)NCCOCCOCC(=O)NCCCC[C@H](NC(=O)[C@H](C)NC(=O)[C@H](C)NC(=O)[C@H](CCC(N)=O)NC(=O)CNC(=O)[C@H](CCC(=O)O)NC(=O)[C@H](CC(C)C)NC(=O)[C@H](Cc1ccc(O)cc1)NC(=O)[C@H](CO)NC(=O)[C@H](CO)NC(=O)[C@@H](NC(=O)[C@H](CC(=O)O)NC(=O)[C@H](CO)NC(=O)[C@@H](NC(=O)[C@H](Cc1ccccc1)NC(=O)[C@@H](NC(=O)CNC(=O)[C@H](CCC(=O)O)NC(=O)C(C)(C)NC(=O)[C@@H](N)Cc1c[nH]cn1)[C@@H](C)O)[C@@H](C)O)C(C)C)C(=O)N[C@@H](CCC(=O)O)C(=O)N[C@@H](Cc1ccccc1)C(=O)N[C@H](C(=O)N[C@@H](C)C(=O)N[C@@H](Cc1c[nH]c2ccccc12)C(=O)N[C@@H](CC(C)C)C(=O)N[C@H](C(=O)N[C@@H](CCCNC(=N)N)C(=O)NCC(=O)N[C@@H](CCCNC(=N)N)C(=O)NCC(=O)O)C(C)C)[C@@H](C)CC)C(=O)O
IC50 [1]: 0.18 nM
EC50 [3]: 0.0048 nM
IC50 [2]: 0.88 nM

CC[C@H](C)[C@H](NC(=O)[C@H](Cc1ccccc1)NC(=O)[C@H](CCC(=O)O)NC(=O)[C@H](CCCNC(=N)N)NC(=O)[C@H](C)NC(=O)[C@H](C)NC(=O)[C@H](CCC(N)=O)NC(=O)CNC(=O)[C@H](CCC(=O)O)NC(=O)[C@H](CC(C)C)NC(=O)[C@H](Cc1ccc(O)cc1)NC(=O)[C@H](CO)NC(=O)[C@H](CO)NC(=O)[C@@H](NC(=O)[C@H](CC(=O)O)NC(=O)[C@H](CO)NC(=O)[C@@H](NC(=O)[C@H](Cc1ccccc1)NC(=O)[C@@H](NC(=O)CNC(=O)[C@H](CCC(=O)O)NC(=O)C(C)(C)NC(=O)[C@@H](N)Cc1c[nH]cn1)[C@@H](C)O)[C@@H](C)O)C(C)C)C(=O)N[C@@H](C)C(=O)N[C@@H](Cc1c[nH]c2ccccc12)C(=O)N[C@@H](CC(C)C)C(=O)N[C@H](C(=O)N[C@@H](CCCNC(=N)N)C(=O)NCC(=O)N[C@@H](CCCNC(=N)N)C(=O)NCC(=O)N[C@@H](CCCCNC(=O)CCCCCCCCCCCCCCCCC(=O)O)C(=O)O)C(C)C
IC50 [1]: 0.31 nM
EC50 [3]: 0.0873 nM
IC50 [2]: 7.55 nM

CC[C@H](C)[C@H](NC(=O)[C@H](Cc1ccccc1)NC(=O)[C@H](CCC(=O)O)NC(=O)[C@H](CCCCN)NC(=O)[C@H](C)NC(=O)[C@H](C)NC(=O)[C@H](CCC(N)=O)NC(=O)CNC(=O)[C@H](CCC(=O)O)NC(=O)[C@H](CC(C)C)NC(=O)[C@H](Cc1ccc(O)cc1)NC(=O)[C@H](CO)NC(=O)[C@H](CO)NC(=O)[C@@H](NC(=O)[C@H](CC(=O)O)NC(=O)[C@H](CO)NC(=O)[C@@H](NC(=O)[C@H](Cc1ccccc1)NC(=O)[C@@H](NC(=O)CNC(=O)[C@H](CCC(=O)O)NC(=O)C(C)(C)NC(=O)[C@@H](N)Cc1c[nH]cn1)[C@@H](C)O)[C@@H](C)O)C(C)C)C(=O)N[C@@H](C)C(=O)N[C@@H](Cc1c[nH]c2ccccc12)C(=O)N[C@@H](CC(C)C)C(=O)N[C@H](C(=O)N[C@@H](CCCNC(=N)N)C(=O)NCC(=O)N[C@@H](CCCNC(=N)N)C(=O)NCC(=O)N[C@@H](CCCCNC(=O)COCCOCCNC(=O)COCCOCCNC(=O)CCCCCCCCCCCCCCCCC(=O)O)C(=O)O)C(C)C
IC50 [1]: 0.27 nM
EC50 [3]: 0.0675 nM
IC50 [2]: 6.73 nM

CC[C@H](C)[C@H](NC(=O)[C@H](Cc1ccccc1)NC(=O)[C@H](CCC(=O)O)NC(=O)[C@H](CCCCNC(=O)COCCOCCNC(=O)COCCOCCNC(=O)CC[C@H](NC(=O)CCCCCCCCCCCCCCCCCCCCC(=O)O)C(=O)O)NC(=O)[C@H](C)NC(=O)[C@H](C)NC(=O)[C@H](CCC(N)=O)NC(=O)CNC(=O)[C@H](CCC(=O)O)NC(=O)[C@H](CC(C)C)NC(=O)[C@H](Cc1ccc(O)cc1)NC(=O)[C@H](CO)NC(=O)[C@H](CO)NC(=O)[C@@H](NC(=O)[C@H](CC(=O)O)NC(=O)[C@H](CO)NC(=O)[C@@H](NC(=O)[C@H](Cc1ccccc1)NC(=O)[C@@H](NC(=O)CNC(=O)[C@H](CCC(=O)O)NC(=O)C(C)(C)NC(=O)[C@@H](N)Cc1c[nH]cn1)[C@@H](C)O)[C@@H](C)O)C(C)C)C(=O)N[C@@H](C)C(=O)N[C@@H](Cc1c[nH]c2ccccc12)C(=O)N[C@@H](CC(C)C)C(=O)N[C@H](C(=O)N[C@@H](CCCNC(=N)N)C(=O)NCC(=O)N[C@@H](CCCNC(=N)N)C(=O)NCC(=O)O)C(C)C
IC50 [1]: 0.21 nM
EC50 [3]: 0.0244 nM
IC50 [2]: 24.8 nM

CC[C@H](C)[C@H](NC(=O)[C@H](Cc1ccccc1)NC(=O)[C@H](CCC(=O)O)NC(=O)[C@H](CCCCNC(=O)COCCOCCNC(=O)CC[C@H](NC(=O)CCCNC(=O)CCCCCCCCCCCCCCCCC(=O)O)C(=O)O)NC(=O)[C@H](C)NC(=O)[C@H](C)NC(=O)[C@H](CCC(N)=O)NC(=O)CNC(=O)[C@H](CCC(=O)O)NC(=O)[C@H](CC(C)C)NC(=O)[C@H](Cc1ccc(O)cc1)NC(=O)[C@H](CO)NC(=O)[C@H](CO)NC(=O)[C@@H](NC(=O)[C@H](CC(=O)O)NC(=O)[C@H](CO)NC(=O)[C@@H](NC(=O)[C@H](Cc1ccccc1)NC(=O)[C@@H](NC(=O)CNC(=O)[C@H](CCC(=O)O)NC(=O)C(C)(C)NC(=O)[C@@H](N)Cc1c[nH]cn1)[C@@H](C)O)[C@@H](C)O)C(C)C)C(=O)N[C@@H](C)C(=O)N[C@@H](Cc1c[nH]c2ccccc12)C(=O)N[C@@H](CC(C)C)C(=O)N[C@H](C(=O)N[C@@H](CCCNC(=N)N)C(=O)NCC(=O)N[C@@H](CCCNC(=N)N)C(=O)NCC(=O)O)C(C)C
EC50 [3]: 0.0107 nM
IC50 [2]: 20.7 nM

CCCCCCCCCCCCCCCC(=O)N[C@@H](CCC(=O)NCCOCCOCC(=O)NCCOCCOCC(=O)NCCCC[C@H](NC(=O)[C@H](C)NC(=O)[C@H](C)NC(=O)[C@H](CCC(N)=O)NC(=O)CNC(=O)[C@H](CCC(=O)O)NC(=O)[C@H](CC(C)C)NC(=O)[C@H](Cc1ccc(O)cc1)NC(=O)[C@H](CO)NC(=O)[C@H](CO)NC(=O)[C@@H](NC(=O)[C@H](CC(=O)O)NC(=O)[C@H](CO)NC(=O)[C@@H](NC(=O)[C@H](Cc1ccccc1)NC(=O)[C@@H](NC(=O)CNC(=O)[C@H](CCC(=O)O)NC(=O)C(C)(C)NC(=O)[C@@H](N)Cc1c[nH]cn1)[C@@H](C)O)[C@@H](C)O)C(C)C)C(=O)N[C@@H](CCC(=O)O)C(=O)N[C@@H](Cc1ccccc1)C(=O)N[C@H](C(=O)N[C@@H](C)C(=O)N[C@@H](Cc1c[nH]c2ccccc12)C(=O)N[C@@H](CC(C)C)C(=O)N[C@H](C(=O)N[C@@H](CCCNC(=N)N)C(=O)NCC(=O)N[C@@H](CCCNC(=N)N)C(=O)NCC(=O)O)C(C)C)[C@@H](C)CC)C(=O)O
IC50 [2]: 3.78 nM
